Laboratory results taken from PMC3430621, “HPLC–MS/MS Analysis of a Traditional Chinese Medical Formulation of Bu-Yang-Huan-Wu-Tang and Its Pharmacokinetics after Oral Administration to Rats” (PLoS ONE, 2012).
Read-outs that look alike come from different tables or passages of the source.

Tests used:
[1] = design: method as in PMID 17931809; details: cited from earlier work
[2] = Stability of the analytes in rat plasma samples (freeze-thaw, short-term, long-term, autosampler); format: in vitro ADME; details: n = 3; for Stability (%) Autosampler stability: autosampler 8°C 12 h; for Stability (%) Short-term stability: room temperature 6 h; for Stability (%) Freeze-thaw stability: three freeze-thaw cycles; for Stability (%) Long-term stability: −20°C 14 days
Procedure: Stability was also assessed using the low, medium and high concentrations of analytes. Freeze-thaw stability was assessed over three freeze-thaw cycles. Short-term stability was determined by placing the samples at room temperature for 6 h. Long-term stability was evaluated by analyzing samples kept at −20°C for 14 days. Autosampler stability was determined by maintaining the samples at the autosampler temperature (8°C) for 12 h. All stabilities were calculating as the ratio of average concentration and freshly prepared samples.

[3] = Pharmacokinetics in conscious freely moving rats after oral administration of BYHWT extract (HPLC-MS/MS of plasma); format: in vivo, Sprague-Dawley rats; details: rat plasma, BYHWT extract 10 g/kg p.o.; for Cmax / Tmax / half-life: male, Sprague-Dawley, po, n = 6; for Cmax: read-out: Cmax; for Tmax: read-out: Tmax (converted); for half-life: read-out: t1/2
Source text: The protocol listed below has been reviewed and approved by the Institutional Animal Care and Use Committee (IACUC; approval number 1010409) by the Institutional Animal Experimentation Committee of the National Yang-Ming University. Male pathogen-free Sprague-Dawley rats (250±50 g body weight) were obtained from the Laboratory Animal Center of National Yang Ming University. The animals had free access to food (Laboratory rodent diet 5P14, PMI Feeds, Richmond, IN, USA) and water was allowed at all times. All animal experiments followed the National Yang-Ming University guidelines and procedures for the care of laboratory animals. […] Experimental rats were initially anesthetized with pentobarbital (50 mg/kg, i.p.), and polyethylene tubing was implanted in the right jugular vein for blood sampling. The tube crossed the subcutaneous tissue and was fixed at its exit from the dorsal neck region. The patency tubing was maintained by filling with heparinized saline (20 units/mL). After surgery, the rats were placed in experimental cages and allowed to recuperate for one day. The rats were kept fasted for 12 h and water were available ad libitum before the BYHWT administration. […] In our study, the dose of BYHWT (10 g/kg) was appropriate for oral administration in rats. […] The condensed blood collection in the absorption phase is to figure out the maximum concentration and the time when it reaches the maximum concentration. The time points in the elimination phase are not close. This strategy is commonly used in the pharmacokinetic studies but the total blood consumption should not be over 20% of body blood. In these experimental rats, the total blood sampling volume is within 20% during 12 h. Plasma was separated by centrifuging the blood sample at 6000 rpm for 10 min at 4°C. […] The samples were vortexed and centrifuged at 16,100×g for 10 min. In our micro-analysis, less than 200 μL is needed. Actually, the collected blood volume is around 120-150 μL for each time point. After centrifugation, the plasma samples (50 μL) were vortex-mixed with 100 μL of acetonitrile. The supernatants were collected and filtered. Around 20 μL aliquot of the supernatants was transferred into the vial for analysis by HPLC-MS/MS system. The acetonitrile but not the real sample was used in the needle pre-wash standard procedure [19]. The LC-MS/MS system consisted of an Agilent 1100 series LC with automatic liquid chromatographic sampler, injector, bi-pump and degasser; and Applied Biosystems/MDS Sciex API 3000 tandem quadrupole mass spectrometry equipped with electrospray ionization (ESI) interface using the following parameters: nebulizer gas (NEB):10, curtain gas (CUR): 7, collisionally activated dissociation gas (CAD): 12, ionspray voltage (IS): 5000 V, turbo ionspray temperature (TEM): 450°C. Nitrogen was used in all cases. The mass spectrometer was operated in the positive ion detection mode. […] The following linear gradient program was applied to the analyte with the mobile phase consisting of methanol (0.1% formic acid, solvent A) and NH4OAc (0.1% formic acid, solvent B): 0-1 min: 30-70% A; 1-2 min 70-90%; 2-8 min: 90-90%; 8-9 min: 90-30%, 9-18 min: 30-30%, v/v. […] The flow rate was maintained at […]. Pharmacokinetic parameters including maximum plasma concentration (Cmax), time to reach the maximum concentrations (Tmax), half-life (t1/2), area under concentration-time curve (AUC) and oral clearance (CL) were estimated by a non-compartmental analysis using the pharmacokinetic program, WinNonlin Standard Edition Version 1.1 (Scientific Consulting, Apex, NC, USA). All results were expressed as average mean ± standard deviation (S.D.). ANOVA was used to evaluate differences, and a value of P<0.05 was taken as statistically significant.

Row | Compound | Stability (%) Autosampler stability ([2]; concentration 10 (µg/mL)) | Stability (%) Short-term stability ([2]; concentration 10 (µg/mL)) | Stability (%) Freeze-thaw stability ([2]; concentration 10 (µg/mL)) | Stability (%) Long-term stability ([2]; concentration 10 (µg/mL)) | Stability (%) Autosampler stability ([2]; concentration 100 (µg/mL)) | Stability (%) Short-term stability ([2]; concentration 100 (µg/mL)) | Stability (%) Freeze-thaw stability ([2]; concentration 100 (µg/mL)) | Stability (%) Long-term stability ([2]; concentration 100 (µg/mL)) | absorption phase in the plasma concentration-time curve [3] | further results
1 | COc1cc2c(c(OC)c1OC)-c1ccc(OC)c(=O)cc1[C@@H](NC(C)=O)CC2 [colchicine] | – | – | – | – | – | – | – | – | – | AUC ([1]; donor rats): 847.7 ± 141.0 µg·min/mL; AUC ([1]; recipient rats): 55.5 ± 29.2 µg·min/mL
2 | COc1ccc(-c2coc3cc(O)ccc3c2=O)cc1 [Formononetin, formononetin] | −13±4.1% | −3.4±12% | −4.9±3.8% | −13±5.5% | −4.6±11% | 1.1±10% | 5.8±10% | −12±7.5% | single and plateau absorption phase | Stability (%) Autosampler stability ([2]; concentration 1000 (µg/mL)): 0.8±12%; Stability (%) Short-term stability ([2]; concentration 1000 (µg/mL)): 1.5±10.4%; Stability (%) Freeze-thaw stability ([2]; concentration 1000 (µg/mL)): −3.5±6.0%; Stability (%) Long-term stability ([2]; concentration 1000 (µg/mL)): 1.0±6.4%; Cmax [3]: 98 ± 17 ng/mL; Tmax [3]: 0.633 h; half-life [3]: 2.92 ± 0.217 h
3 | CC(C)(O)[C@@H]1CC[C@](C)([C@H]2[C@@H](O)C[C@@]3(C)[C@@H]4C[C@H](O[C@@H]5O[C@H](CO)[C@@H](O)[C@H](O)[C@H]5O)[C@H]5C(C)(C)[C@@H](O[C@@H]6OC[C@@H](O)[C@H](O)[C@H]6O)CC[C@@]56C[C@@]46CC[C@]23C)O1 [Astragaloside IV, astragaloside IV] | 3.3% | 4.7±6.2% | −4.1±3.4% | −6.3±8.8% | −8.6±12% | 1.6±9.1% | 6.1±0.4% | 2.1±13.5% | double-peak absorption phase | Stability (%) Autosampler stability ([2]; concentration 1 (µg/mL)): 3.8±9.8%; Stability (%) Short-term stability ([2]; concentration 1 (µg/mL)): 12±15%; Stability (%) Freeze-thaw stability ([2]; concentration 1 (µg/mL)): −3.2±5.0%; Stability (%) Long-term stability ([2]; concentration 1 (µg/mL)): −17±5.3%; Cmax ([3]; in vivo): 100 ± 16 ng/mL; Tmax ([3]; in vivo): 0.583 h; half-life ([3]; in vivo): 2.83 ± 0.138 h
